Source: patent EP3898610B1, “NOVEL AZA-HEXAPHENE ANTIBIOTIC COMPOUNDS” (Fondazione Istituto Insubrico di Ricerca per la Vita, priority 2018, dated 2020)
≈ marks a conversion by molar mass, not a printed value.

Key:
Format in all cases: cell-based
[1] = test system: L4187 E. faecium VanA - Lnz R - Cpx R; test: microbe, parasite or virus in culture; conditions: Enterococcus faecium
Experimental: (§1) Antibacterial activity. […] Each bacterial strain was inoculated with 2-5×10^5 CFU/ml, Candida albicans with 10^4 CFU/ml. Cultures were incubated at 35°C in air. After 18-24 hours visual readings were performed and MICs (Minimal Inhibitory Concentrations) determined. The effect of 30% bovine serum was determined under the same experimental conditions. The strains used were clinical isolates or strains from American Type Culture Collection (ATCC).

[2] = test system: VA80201 S. aureus CA-MRSA; test: MIC, broth microdilution (CLSI); conditions: Staphylococcus aureus, MRSA
Experimental: as §1

[3] = test system: L1729 S. haemolyticus MDR; test: MIC, broth microdilution (CLSI); conditions: Staphylococcus haemolyticus
Experimental: as §1

[4] = test system: L568 E. faecium; test: MIC, broth microdilution (CLSI); conditions: Enterococcus faecium
Experimental: as §1

[5] = test system: L560 E. faecalis VanA; test: MIC, broth microdilution (CLSI); conditions: Enterococcus faecalis
Experimental: as §1

[6] = test system: L100 S. aureus ATCC6538P; test: MIC, broth microdilution (CLSI); conditions: Staphylococcus aureus, ATCC6538P
Experimental: as §1

[7] = test system: L1730 S. haemolyticus; test: MIC, broth microdilution (CLSI); conditions: L1730 S. haemolyticus, cation-adjusted Mueller Hinton Broth, 35°C, 18-24 hours
Experimental: as §1

[8] = test system: L4061 S. aureus MRSA - GISA; test: MIC, broth microdilution (CLSI); conditions: Staphylococcus aureus, MRSA
Experimental: as §1

[9] = test system: L44 S. pneumoniae; test: MIC, broth microdilution (CLSI); conditions: Streptococcus pneumoniae
Experimental: as §1

[10] = test system: L1577 S. epidermidis; test: MIC, broth microdilution (CLSI); conditions: Staphylococcus epidermidis
Experimental: as §1

[11] = test system: L819 S. aureus Smith; test: MIC, broth microdilution (CLSI); conditions: Staphylococcus aureus
Experimental: as §1

[12] = test system: L1400 S. aureus HA-MRSA; test: MIC, broth microdilution (CLSI); conditions: Staphylococcus aureus, MRSA
Experimental: as §1

[13] = test system: L47 E. coli; test: MIC, broth microdilution (CLSI); conditions: Escherichia coli
Experimental: as §1

[14] = test system: L49 S. pyogenes C203; test: MIC, broth microdilution (CLSI); conditions: Streptococcus pyogenes
Experimental: as §1

[15] = test system: L559 E. faecalis; test: MIC, broth microdilution (CLSI); conditions: Enterococcus faecalis
Experimental: as §1

[16] = test system: L569 E. faecium VanA; test: MIC, broth microdilution (CLSI)
Experimental: as §1

[17] = test system: VA8101 S. agalactiae (Group B); test: MIC, broth microdilution (CLSI); conditions: Streptococcus agalactiae
Experimental: as §1

[18] = test system: L3294 M. catarrhalis; test: MIC, broth microdilution (CLSI); conditions: Moraxella catarrhalis
Experimental: as §1

[19] = test system: L145 C. albicans; test: MIC, broth microdilution (CLSI); conditions: Candida albicans
Experimental: Antibacterial activity. The antimicrobial activity of the antibiotic 103/33-F710 was determined by the broth microdilution method according to the procedures published by the Clinical and Laboratory Standards Institute (CLSI), formerly the National Committee for Clinical Laboratory Standards (NCCLS) (document M07-A9). Microorganisms were grown in either cation-adjusted Mueller Hinton Broth (Staphylococci, Enterococci, Moraxella catarrhalis, Escherichia coli), Todd Hewitt medium (Streptococci) or RPMI 1640 medium for Candida albicans on 96-well microtiter plates. Each bacterial strain was inoculated with 2-5×10^5 CFU/ml, Candida albicans with 10^4 CFU/ml. Cultures were incubated at 35°C in air. After 18-24 hours visual readings were performed and MICs (Minimal Inhibitory Concentrations) determined. The effect of 30% bovine serum was determined under the same experimental conditions. The strains used were clinical isolates or strains from American Type Culture Collection (ATCC). The antibiotic 103/33-F710 was dissolved in DMSO to obtain a 1000 µg/ml stock solution, and subsequently diluted in water to obtain working solution. Table 5: Antimicrobial activity reported as MIC (µg/ml) of ID103/33-F710
Antibacterial activity. The antimicrobial activity of the antibiotic 103/33-F696 was determined by the broth microdilution method according to the procedures disclosed in Example 7. Table 6: Antimicrobial activity reported as MIC (µg/ml) of compound 2 (103/33-F696)
Antibacterial activity. The antimicrobial activity of the antibiotic 103/33-F712 was determined by the broth microdilution method according to the procedures disclosed in Example 7. Table 7: Antimicrobial activity reported as MIC (µg/ml) of ID103/33-F712

## CN[C@H](CC(C)C)C(=O)N[C@H]1C(=O)N[C@@H](CC(N)=O)C(=O)N[C@H]2C(=O)N[C@H]3C(=O)N[C@H](C(=O)N[C@H](C(=O)O)c4cc(O)cc(O)c4-c4cc3ccc4O)[C@H](O)c3ccc(c(Cl)c3)Oc3cc2cc(c3O[C@@H]2O[C@H](CO)[C@@H](O)[C@H](O)[C@H]2O[C@H]2C[C@](C)(N)[C@H](O)[C@H](C)O2)Oc2ccc(cc2Cl)[C@H]1O [Vancomycin, reference compound]
[1]
  MIC: > 128 µg/mL
[2]
  MIC: 1 µg/mL (≈ 0.69 µM)
[3]
  MIC: 2 µg/mL (≈ 1.38 µM)
[4]
  MIC: 2 µg/mL (≈ 1.38 µM)
[5]
  MIC: > 128 µg/mL
[6]
  MIC: 1 µg/mL (≈ 0.69 µM)
[7]
  MIC: 0.5 µg/mL (≈ 0.345 µM)
[7]; Staphylococcus haemolyticus
  MIC: 1 µg/mL (≈ 0.69 µM)
[8]
  MIC: 4 µg/mL (≈ 2.76 µM)
[9]
  MIC: 0.5 µg/mL (≈ 0.345 µM)
[10]
  MIC: 1 µg/mL (≈ 0.69 µM)
[11]
  MIC: 1 µg/mL (≈ 0.69 µM)
[12]
  MIC: 1 µg/mL (≈ 0.69 µM)
[13]
  MIC: > 128 µg/mL
[14]
  MIC: 0.5 µg/mL (≈ 0.345 µM)
[15]
  MIC: 0.5 µg/mL (≈ 0.345 µM)
[16]; Enterococcus faecium
  MIC: > 128 µg/mL
[16]; L569 E. faecium VanA 30 % SB (30% bovine serum)
  MIC: > 128 µg/mL
[17]
  MIC: 0.5 µg/mL (≈ 0.345 µM)
[18]
  MIC: 16 µg/mL (≈ 11 µM)

## C[C@@H]1[C@H](O)[C@@H](C)/C=C/C=C/C=C/C=C/C=C/C=C/C=C/[C@H](O[C@@H]2O[C@H](C)[C@@H](O)[C@H](N)[C@@H]2O)C[C@@H]2O[C@](O)(C[C@@H](O)C[C@@H](O)[C@H](O)CC[C@@H](O)C[C@@H](O)CC(=O)O[C@H]1C)C[C@H](O)[C@H]2C(=O)O [amphotericin B, reference compound]
[19]
  MIC: 0.5 µg/mL (≈ 0.541 µM)
